The source of these data is patent US11998013B1, “1-(morpholin-4-yl)-3-(naphthalen-2-yloxy)propan-2-ol as an eco-friendly insecticidal agent against spodoptera littoralis (boisd.)” (priority 2023, dated 2024).

By LC50 is commonly meant the concentration lethal to half of the exposed cells or organisms.

The data set concerns Spodoptera littoralis. The experiment in a line: Insecticidal bioassay screening (castor leaf dip, larval mortality). In kind it is in vivo. The following applies: for Toxic ratio: 72 h, fenoxycarb's LC50 / compound's LC50 × 100. Here is the method: Five concentrations (200, 100, 50, 25, 12.5 ppm) were designed for this synthetic compound and the reference fenoxycarb compound as the dynamic ingredients based on ppm via diluting the commercial formulation.
In this experiment, castor leaves are immersed in each of the previously prepared concentrations of the components for 10 seconds and then left to dry for 60 minutes. Larvae of the second and fourth instars of each checked strain are prepared with treated leaves in gauze-covered glass containers for 72 hrs. An untreated control is made in which leaves are dipped in triton x-100 and distilled water only. Then the preserved leaves were removed & fresh, untreated leaves were provided for 72 hours. Three replicates (10 larvae each) were checked for each concentration. Daily inspection was carried out for all treatments and mortality percentages were recorded 3 days (72 hours) after treatment. The average mortality percentage was corrected employing Abbott's formula. The corrected mortality rate for each of the previously synthesized compounds is statistically calculated according to Finney (1970). Through this rate, the corresponding concentration test lines (LDP lines) are assessed. Fifty and ninety percent mortality are determined, and the regression values for the checked products were previously evaluated.

In brackets after ≈: the same amount, converted by molar mass.

In the case of `OC(COc1ccc2ccccc2c1)CN1CCOCC1` (stereo not drawn) [Compound 2, 1-(morpholin-4-yl)-3-(naphthalen-2-yloxy)propan-2-ol], the Toxic ratio (2nd instar larvae) stood at 15.5 and the Toxic ratio (4th instar larvae) turned out to be 62.4. The same compound came in with an LC50 (Spodoptera littoralis, foliar) of 17.6 µg/mL (≈ 61.1 µM). Besides, the “activity against Spodoptera littoralis (in words)” value (compared with the reference insecticide fenoxycarb) was “active against Spodoptera littoralis”.

Consider `CCOC(=O)NCCOc1ccc(Oc2ccccc2)cc1` [Fenoxycarb, reference compound], for which the LC50 was found to be 2.73 ppm (2nd instar larvae of S. littoralis, after 72 h of treatment, treated castor leaves); 43.231 ppm (4th instar larvae of S. littoralis, after 72 h of treatment, treated castor leaves); 2.73 µg/mL (≈ 9.06 µM) (Spodoptera littoralis, foliar). Moreover, the Toxic ratio reads like this: (2nd instar larvae) 100; (4th instar larvae) 1.
